The source of these data is US20170327556A1, “CARTILAGE-BINDING FUSION PROTEINS” (Merrimack Pharmaceuticals, Inc., priority 2013, published 2017).

For the assay, the system named is bovine cartilage explants. The assay is described as follows: In vitro joint disease model (IL-1), explanted bovine cartilage: sGAG loss. The class given is cell-based. The conditions noted are these: for cartilage matrix loss (% sGAG loss): 13.3 nM supplied in every medium change, IL-1, relative to Disease control; for cartilage matrix loss (% sGAG loss), 4 days versus 12 days of treatment: protein in medium day 0-4 only versus 12 days, IL-1, FIG. 7. The text has this:
Bovine cartilage explants (3 mm diameter, 1.2 mm thick) are harvested from the femoral patellar groove of 2-4 week old bovine calves. Knee joints are mounted by removing all tissue surrounding the femur, removing the femoral head with a bone saw or hack saw, and clamping in a tissue vice. Joints are aseptically opened, removing the patella, tibia and fibula. Using a 3 mm diameter disposable biopsy punch, approximately 80×3 mm diameter full thickness cartilage cores are punched from the femoral-patellar groove. A sterile knife is used to slice the cores at the cartilage-bone interface. Cores are then inserted into 3 mm diameter holes in a 1.2 mm thick sterile stainless steel plate and sliced flush with the plate using sterile razor blades to remove the excess core length, resulting in 3 mm diameter, 1.2 mm thick cartilage explants with the superficial zone cartilage intact.
Explants are cultured in 96-well plates in 300 μL of medium consisting of low glucose DMEM (1× Gibco 11885-084), Penicillin-Streptomycin (1×, Gibco 15140-122), ascorbic acid (20 μg/mL, Sigma A4403), proline (400 μM, Sigma P5607-256), non-essential amino acids (1×, Sigma M7145), and HEPES (100 mM, Gibco 15630-080). Explants from three animals (n=2-3 per animal) are used in each treatment condition for a total explant number of 8-9 per condition. Medium is changed every 2 days. On days 6 and 10, the medium is supplemented with 5 μCi/mL of ^35S-sodium sulfate (Perkin Elmer NEX041H001MC, 1 mCi).
Timepoints are taken at day 8 and 12: explant tissue is washed four times for 30 min each (2 hr total) in 1 mM unlabeled sodium sulfate in PBS. Each explant is weighed wet and frozen at −20° C. until digestion. Tissue digestion was performed with Proteinase K (Roche cat #3115879001) and each explant is digested in 1 mL 100 μg/mL Proteinase K in 50 mM Tris-HCL, 1 mM Calcium Chloride pH=8.0 buffer at 60° C. overnight. Measurement of sGAG content and DNA content is performed using standard assay methods such as those described in Hoemann, 2004, Methods in Molecular Medicine: Cartilage and Osteoarthritis. Totowa, N.J.: Humana Press Inc.; p. 127-52. ^35S-sulfate content of the digested cartilage explants was quantified by mixing 20 μL of digest with 250 μL of scintillation fluid (Perkin Elmer cat #1200-439) and counting with a WALLAC 1450 MICROBETA TRILUX scintillation counter.
Treatments were given at the following concentrations: wtIGF-1 13.3 nM=100 ng/mL (IGF-1 R&D systems 291-G1); GF-Fus1 (6x-Histidine tagged) 13.3 nM=135 ng/mL; GF-Fus2 (6x-Histidine tagged) 13.3 nM=140 ng/mL; and GF-Fus3 (6x-Histidine tagged)13.3 nM=181 ng/mL. All treatments included IL-1 and were given for either 4 days or the entire culture duration. The outcomes measured were ^35S-sulfate incorporation, DNA content, and sGAG content of plug at endpoint, and sGAG released to media for all media changes. Controls were either no treatment (Healthy) or IL-1 alone at 1 ng/mL (Disease).
FIG. 4 depicts a graph of cartilage matrix loss as measured by the cumulative percentage of total sGAG lost to the culture medium against time (days). Percentage loss is calculated by dividing the cumulative sGAG in the culture medium by the total sGAG present in the medium over the culture period plus the sGAG remaining in the explant at the end of culture. Cartilage matrix loss was reduced by each IGF fusion protein relative to the disease control at a level similar to wild-type IGF. New cartilage matrix synthesis (i.e. sulfated proteoglycan synthesis is measured by ^35S-Sulfate incorporation) during the final 48 hrs of cultures terminated at day 8 and day 12 is shown in FIGS. 5A and 5B, respectively. Cartilage matrix synthesis was increased compared to disease control by all fusion proteins (GF-Fus1, GF-Fus2, and GF-Fus3) and wild-type IGF when the fusion proteins were supplied in every medium change for the entire culture duration of 8 and 12 days (black bars). […]

Take “GF-Fus1: IGF-1 variant polypeptide Long [R^3]-IGF-1, no fused binding domain; used 6x-Histidine-tagged as control [reference compound]”: the “cartilage matrix loss (% sGAG loss)” value was “reduced” and the “cartilage matrix loss (% sGAG loss), 4 days versus 12 days of treatment” value is recorded as “higher sGAG loss than 12 days of treatment”.

As for “GF-Fus6: IGF-1(LR3) fused to CNA344 CB domain”, the “cartilage matrix loss (% sGAG loss)” value is “reduced”.

In the case of “wtIGF: Wild-type IGF-1 (R&D systems 291-G1), control [reference compound]”, the “cartilage matrix loss (% sGAG loss)” value is reported as “reduced”.

Take “GF-Fus5: IGF-1(LR3) fused to CNA35 CB domain”: the “cartilage matrix loss (% sGAG loss)” value is on record as “reduced”.

Regarding “GF-Fus3: C-terminal fusion IGF-1(LR3)-PRELP heparin binding domain”, the “cartilage matrix loss (% sGAG loss)” value is “reduced” and the “cartilage matrix loss (% sGAG loss), 4 days versus 12 days of treatment” value is listed as “reduced sGAG loss by an equivalent amount”.
